Source: patent US20090069443A1, “Sedative Effect-Imparting Agent And Sedative Perfume Composition Containing The Same” (Shiseido Co., Ltd., priority 2005, published 2009)
Entries after “also recorded” stand apart in the source; their conditions may differ.

These compounds were tested on healthy adult females (assay: CNV (contingent negative variation) brain wave measurement of sedative effect). Conditions: 1 mass % solution in ethanol, inhaled from cotton pad below the nose; three to six healthy adult females; FIG. 1.
Format: in vivo, human
Excerpt: Measured was fluctuation in the negative potential of the event-related potential, a type of brain wave, which is also called contingent negative variation (hereinafter, referred to as CNV). The fluctuation intensity of the earlier component of the CNV brain wave is reported to show a positive correlation with the level of consciousness such as attention or expectation, and thus, the CNV brain wave can be used for quantitative evaluation of the effect of a fragrance on the consciousness level (sedated/stimulated) (Torii S. et al., Contingent negative variation (CNV) and the psychological effects of odour. In Perfumery: The Psychology and Biology of Fragrance, Edited by Toller S. V. and Dodd G. H., pp. 107-120, Chapman and Hall, London (1998)).
In the present invention, electrodes were adhered to the […] (Cz) and the left ear (A1) of a subject, and the voltage between the electrodes was measured with an electroencephalograph. The subject was made to listen to a click sound via headphone and push a switch in hand in response to a light-emitting diode flashing few seconds after the click sound, and the CNV brain wave was determined during the operation. In the test with fragrance, a perfume composition was allowed to penetrate into a square cotton pad of approximately 0.5 0.5 cm in size; the cotton pad was placed below the nose; and the subject was allowed to inhale the fragrance together with normal breathing during the series of operations above. […] The CNV brain waves were measured 30 times with and without fragrance respectively, and the fragrance effect was evaluated by comparing the integrated values of the earlier component of the CNV brain wave 400 to 1,000 ms after the click.
o-dimethoxybenzene (o-DMB), m-dimethoxybenzene (m-DMB), and p-dimethoxybenzene (p-DMB) were dissolved respectively in ethanol, to give 1 mass % solutions, and the effect thereof on CNV was measured according to the test method as above. […]

SMILES | sedative effect (effect on CNV)
COc1cccc(OC)c1 [m-dimethoxybenzene] | favorable effect that leads the subject to sedative direction; also recorded: particularly favorable sedative effect
COc1ccccc1OC [o-dimethoxybenzene] | favorable effect that leads the subject to sedative direction; also recorded: particularly favorable sedative effect
COc1ccc(OC)cc1 [p-dimethoxybenzene] | favorable effect that leads the subject to sedative direction
